Source: patent US8003572B2 (priority 2004, dated 2011)

Experiments:
[1] = test system: C85 colorectal adenocarcinoma cells; test: Clonogenic assay with C85 colorectal adenocarcinoma cells; format: cell-based, human
Experimental: Compounds identified by structure based screening were assayed in a clonogenic assay with C85 colorectal adenocarcinoma cells. Briefly, C85 cells were plated at 200 cells per well in six well plates. Seventy-two hours after plating, compounds 05RB, 0BWP, 0FZK, 0RZL, HBS01, 01LX, 0464, 1BJO AND 27NT were added at various concentrations (See Table 1). Colonies were counted 96 hours after treatment and IC50 concentrations determined (Table 1).

MCF-7 = test: MTS cell proliferation assay in MCF-7; format: cell-based; conditions: Homo sapiens, MCF7
Experimental: (§1) In order to determine the IC50 values of HBS01 an MTS assay was performed on MCF-7 and MCF-7/ADR (adramycin resistance) cell lines. Cells were plated in a 96 well plate at 5,000 cells/well. After plating, cells were treated for 96 hours with either HBS01, methotrexate (MTX), doxyrubicin (DOX), or 5-Fluorouracil (5FU) and an MTS assay was performed according to manufacturer's protocol with the CELL TITER 96 AQ non-radioactive cell proliferation assay kit (Promega, Cat. No. G5421). Viable cells were quantitated based on absorbance at 490 nm. […] Thus, HBS01 was an extremely potent inhibitor of MCF-7 and MCF-7Adr proliferation.

[2] = test system: MCF-7/ADR (adramycin resistance) cell line; test: MTS cell proliferation assay in MCF-7/ADR; format: cell-based; conditions: Homo sapiens, NCI/ADR-RES
Experimental: as §1

[3] = test system: C85 human colorectal cancer cells; test: C85 colorectal tumors in nude mice; format: in vivo
Experimental: (§2) C85 human colorectal cancer cell growth was assessed in nude mice (NIH, Cr:(MCr)-Fox1nu(nu/nu homogygous), Taconic Inc., Germantown, N.Y.) treated or pretreated with HBS01 over a 19 day period. Briefly, pretreated animals were administered three daily doses of HBS01 at 17 mg/Kg given on day −3, −2, and −1 prior to tumor cell injection on day 0. No further treatment was given to the pretreated animals. Nude mice were injected in the flanks with 1 million C85 human colorectal cancer cells. Treated animals were treated with daily injections of HBS01 at 17 mg/kg per at days 10, 11, 12, 15, 16 and 17 following appearance of palpable tumors on day 10.
Tumor diameters were measured with calipers every alternate day and tumor volumes were calculated by ½ab^2 where a is the larger diameter (Friedman, H S., et al. Cancer Res. 46, 2827-2833). The results are shown in FIG. 3 as tumor volume in cm^3.

[4] = test system: MCF-7 breast cancer cells; test: MCF-7 breast cancer tumors in nude mice; format: in vivo
Experimental: as §2, with “MCF-7 breast” for “C85 human colorectal”, “31 days.” for “a 19 day period.”, “200,000 MCF-7 breast” for “1 million C85 human colorectal”, “10. Tumor diameters were measured with calipers every alternate day and tumor volumes were calculated by ½ab^2 where a is the larger diameter (Friedman, H S., et al. Cancer Res. 46, 2827-2833). The results are shown in FIG. 4 as tumor volume in cm^3.” for “10.”

EGFP marked C85 cells = test: Metastatic growth of EGFP marked C85 cells in nude mice; format: in vivo; conditions: pre-treated 14.5 mg/kg every 24 hrs for five days; ten days post-C85 tail vein injection
Experimental: The effect of HBS01 on the metastatic growth of enhanced green fluorescent protein (EGFP) marked C85 cells was assayed in nude mice (NIH, Cr:(MCr)-Fox1nu(nu/nu homogygous), Taconic Inc., Germantown, N.Y.). Briefly, nude mice were pre-treated with 14.5 mg/kg of HBS01 every 24 hrs for five days. At the completion of pre-treatment the pre-treated or control non-treated mice were injected in the tail vein with 1×10^6 EGFP marked C85 cells. Ten days post-C85 injection, the mice were dissected and tumor size assessed based on intravital fluorescence imaging and liver biopsies.

[5] = test system: protein ubiquination pathways; test: Protein ubiquination in C85 cell lysates (HA-tagged ubiquitin Western blot); format: cell-based; conditions: C85 cells treated for 24 or 48 hrs
Experimental: Briefly, C85 cells were plated at 200 cells per well in six well plates.
Cells were either untreated (controls) or treated for 24 or 48 hrs with HBS01. After the treatment period, cells were harvested and extracts were prepared from the cells by freeze fracturing in liquid nitrogen in breakage buffer (50 mM Tris pH 7.5, 1 mM DTT, “Complete” protease inhibitor cocktail (Roche, Cat.# 1697498), 10 μM MG132). Roughly […] of total protein extracts in 300 μl of breakage buffer was supplemented with 20 μg of PHH-Ub (HA and His6 tagged Ubiquitin) and incubated at 30° C. for 60 min. 3×SDS-PAGE sample buffer was added to 40 μl of this reaction and boiled for 3 min. The extracts were run on 12% Laemmli gels that were either stained with Coomassie Blue R-250 or blotted with HRP conjugated 12CA5 monoclonal antibody (Roche, Inc., Indianapolis, Ind.) and visualized by ECL, with the ECL plus western blot detection kit (Amersham Biosciences, Piscataway, N.J.) according to manufacturers instructions.

cyclin-B = test: Ubiquination of cyclin-B in C85 cell lysates (Western blot); format: cell-based; conditions: C85 cells treated for 24 hrs
Experimental: The ability of HBS01 to inhibit protein ubiquination of cyclin-B was assayed in C85 cell lines. Briefly, C85 cells were plated at 200 cells per well in six well plates. Cells were either untreated (controls) or treated for 24 hrs with HBS01. After the treatment period, cells were harvested and extracts were prepared from the cells by freeze fracturing in liquid nitrogen in breakage buffer (50 mM Tris pH 7.5, 1 mM DTT, “Complete” protease inhibitor cocktail (Roche, Cat.# 1697498), 10 μM MG132). Roughly […] of total protein extracts in 300 μl of breakage buffer was supplemented with 20 μg of PHH-Ub (HA and His6 tagged Ubiquitin) and incubated at 30° C. for 60 min. 3×SDS-PAGE sample buffer was added to 40 μl of this reaction and boiled for 3 min. The extracts were run on 12% Laemmli gels and Western Blots were performed with anti-cyclin-B antibody (Santa Cruz Biotechnology, Inc., Santa Cruz, Calif.). Results were visualized by ECL, with the ECL plus western blot detection kit (Amersham Biosciences, Piscataway, N.J.) according to manufacturers instructions.

[6] = Maximum tolerated dose in mice; conditions: nude, mouse, in vivo
[7] = Homo sapiens, C85 cells, colonies counted 96 hours after treatment
[8] = pretreated animals, 17 mg/Kg on day -3, -2 and -1 prior to tumor cell injection

SMILES: NC(=O)c1ccc([N+](=O)[O-])cc1Cl [Compound 0BWP, 2-Chloro-4-nitrobenzamide]
- IC50 [1, 7]: 600000 nM

SMILES: Oc1cc(Cl)cnc1O [Compound 0FZK, 5-chloro-2,3-dihydroxypyridine]
- IC50 [1, 7]: 175000 nM

SMILES: CC1CN(c2ccccc2)NC1=O (centres unmarked) [Compound 0RZL, 1-Phenyl-4-methyl-3-pyrazolidone]
- IC50 [1, 7]: 50000 nM

SMILES: CC(=O)Nc1ccccc1O [Compound 01LX, 2-Acetamidophenol]
- IC50 [1, 7]: 375000 nM

SMILES: Nc1ccc(Nc2ccccc2)cc1 [Compound 05RB, N-Phenyl-4-phenylenediamine]
- IC50 ([1]; C85 cells, colonies counted 96 hours after treatment): 37500 nM

SMILES: Nc1ccc2cn[nH]c2c1 [Compound 0464, 6-AMINOINDAZOLE]
- IC50 [1, 7]: 70000 nM

SMILES: NCC1CCNCC1 [HBS01, 4-(Aminomethyl)piperidine]
- IC50 ([1]; Homo sapiens, C85 cells, colonies counted 96 hours after treatment, * denotes nM): 30 nM
- IC50 ([1]; human colon cancer cell line C85): 30 nM
- IC50 (MCF-7; MCF-7, treated for 96 hours, MTS): 0.03 µM
- IC50 (MCF-7; breast cancer cell line MCF-7): 0.03 µM
- IC50 ([2]; MCF-7Adr, treated for 96 hours, MTS): 0.03 µM
- IC50 ([2]; breast cancer cell line MCF-7Adr): 0.03 µM
- tumor growth (tumor volume) [3, 8]: delayed tumor growth
- growth of established tumors (tumor volume) ([3]; treated animals, 17 mg/kg daily at days 10, 11, 12, 15, 16 and 17, 17 mg/kg): significantly inhibited the growth of established tumors
- onset of tumors (tumor volume) [4, 8]: delayed the onset of MCF-7 tumors
- tumor growth (tumor volume) ([4]; treated animals, 17 mg/kg daily at days 10, 11, 12, 15, 16 and 17): significantly inhibited tumor growth
- metastatic tumors (EGFP marked C85 cells): metastatic tumors were not detectable
- general ubiquitin conjugation (ubiquitin intensities and banding patterns) [5]: general inactivation of the ubiquitin conjugation pathways did not occur
- ubiquination of cyclin-B (cyclin-B): selectively inhibited the ubiquination of cyclin-B
- MTD [6]: 1400 mg/kg
